From paper PMC10696396, “HilE represses the activity of the Salmonella virulence regulator HilD via a mechanism distinct from that of intestinal long-chain fatty acids” (The Journal of Biological Chemistry, 2023)

Experiments:
[1] = target: T1, HilD (Salmonella enterica, UniProt P0CL08); assay: biochemical; set-up: EYFP-HilD (full-length HilD with N-terminal EYFP tag); microscale thermophoresis, fatty acid titrated against EYFP-HilD in presence of Pluronic F-127, MST on-time 1.5 s; details: in presence of Pluronic F-127; read-out: Kd ± SD
[2] = target: T1, HilD; assay: EMSA with hilA promoter DNA; format: biochemical; set-up: HilD
[3] = target: T1, HilD; assay: MST; format: binding; set-up: EYFP-HilD (full-length HilD with N-terminal EYFP tag); details: read-out: Kd ± SD
[4] = target: T2, HilD (Salmonella enterica, UniProt P0CL08, E102A); assay: MST; format: binding
T2 construct: HilD point mutant
T2 sequence (P0CL08 1-309 E102A): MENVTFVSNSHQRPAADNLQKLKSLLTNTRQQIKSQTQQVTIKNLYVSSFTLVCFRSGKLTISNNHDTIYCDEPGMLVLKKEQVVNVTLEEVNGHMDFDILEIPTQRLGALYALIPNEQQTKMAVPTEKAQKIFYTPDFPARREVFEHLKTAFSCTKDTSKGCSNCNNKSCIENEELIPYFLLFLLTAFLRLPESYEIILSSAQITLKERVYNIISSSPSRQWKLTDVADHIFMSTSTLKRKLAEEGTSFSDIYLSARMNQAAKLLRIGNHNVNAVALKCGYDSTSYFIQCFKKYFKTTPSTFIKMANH

[5] = target: T3, HilD (Salmonella enterica, UniProt P0CL08, R267A); assay: MST; format: binding
T3 construct: HilD point mutant
T3 sequence (P0CL08 1-309 R267A): T2 sequence (P0CL08 1-309 E102A)

[6] = target: T4, HilD (Salmonella enterica, UniProt P0CL08, E102A/K264A/R267A); assay: MST; format: binding
T4 construct: HilD triple alanine mutant
T4 sequence (P0CL08 1-309 E102A/K264A/R267A): T2 sequence (P0CL08 1-309 E102A)

[7] = target: T5, HilD (Salmonella enterica, UniProt P0CL08, K264A); assay: MST; format: binding
T5 construct: HilD point mutant
T5 sequence (P0CL08 1-309 K264A): T2 sequence (P0CL08 1-309 E102A)

[8] = target: T1, HilD; assay: MST; supported by HDX-MS, nanoDSF and BS3 cross-linking; format: binding; set-up: EYFP-HilD (full-length HilD with N-terminal EYFP tag); details: read-out: Kd ± SD
[9] = target: T1, HilD; assay: MST; supported by nanoDSF melting temperature increase; format: binding; set-up: EYFP-HilD (full-length HilD with N-terminal EYFP tag); details: read-out: Kd ± SD

For `CCCCCCCC/C=C\CCCCCCCC(=O)OC` [Methyl Oleate], the Kd [1] was 739 µM.
Work on `CCCC/C=C\CCCCCCCC(=O)O` [Myristoleic Acid] yielded a Kd [1] of 567 µM.
For `CCCCCCCC/C=C/CCCCCCCC(=O)O` [elaidic acid], the “EMSA with hilA promoter DNA” value [2] was “Elaidic acid appears to bind to HilD with similar affinity to oleic acid”.
Compound `CCCCCCCC/C=C\CCCCCCCCCCCC(=O)O` [erucic acid] has a Kd [3] of 12.8 ± 3.33 µM and a Kd [1] of 14.7 µM.
For `CCCCCCCC/C=C\CCCCCCCC(=O)O` [oleic acid], the Kd [4] was 39 ± 8.26 µM, the Kd [5] was 39.4 ± 7.98 µM and the Kd [6] was 39.7 ± 7.9 µM. The Kd [7] was 27.1 ± 7.08 µM and the Kd [8] was 15 ± 3.21 µM.
`CCCCCC/C=C\CCCCCCCC(=O)O` [palmitoleic acid] was tested, and the Kd [9] was 27.6 ± 8.7 µM.
